One data set concerns MDR1. Nature of the data set: MDCK-MDR1 permeability assay (BBB penetration potential). The data set is classed as in vitro ADME. To be noted: dog; for efflux ratio at 120 min, 5 μM: MDCK-MDR1, pH 7.4, Papp (B-to-A)/Papp (A-to-B), read-out: MDCK-MDR1: Efflux; for Papp A→B at 120 min, 5 μM / Papp B→A at 120 min, 5 μM: MDCK-MDR1, pH 7.4. On the procedure:
(§1) Each determination is performed in duplicate. […] Analytical conditions are outlined below.
(§2) Papp=(dCr/dt)×Vr/(A×CA) (1)

Data set [1] concerns MDR1-MDCK cell monolayers. The data set is described as above. The data set is classed as in vitro ADME. To be noted: 5 μM, 120 minutes, pH 7.4. On the procedure:
as §1, §2

A further data set relates to SMN protein. Nature of the data set: SMN protein assay (MSD) in SMA patient fibroblasts GM03813. In kind it is cell-based. To be noted: Fibroblast, 48 h, SMA patient fibroblasts GM03813, 48 hours; read-out: SMN2 Potency - Protein: Protein FL EC50 (average). On the procedure: Compounds were tested on spinal muscular atrophy (SMA) patient fibroblasts (GM03813, Coriell) at doses ranging from 2.5 μM to 0.6 nM. 7000 cells/well were seeded in 96-well plates. Compounds were incubated for 48 hours and the cells were lysed with 100 μL of lysis buffer. 20 μL of lysate was used for SMN protein measurement by Mesoscale Discovery (MSD) assay developed by PharmOptima (Michigan). A standard curve prepared with SMN protein ranging from 1 μg/ml to 19.5 pg/ml was used in each MSD plate to calculate the absolute SMN protein amount in each sample.

A further data set deals with SMN2. As to the kind of experiment: Quantitative splicing assay (SMN) in SMA patient fibroblasts GM03813. The data set is classed as cell-based. To be noted: Homo sapiens, Fibroblast, SMA patient fibroblasts GM03813, 24 h; for IC50: read-out: SMN2 Potency - Splicing: Splicing D7 IC50 (average); for EC50: read-out: SMN2 Potency - Splicing: Splicing FL EC50 (average). On the procedure: Spinal muscular atrophy (SMA) patient fibroblasts (GM03813, Coriell) are plated in 96-well plates at 50,000 cells/well. Immediately after plating, cells are dosed with compounds for 24 h at concentrations ranging from 2.5 μM to 0.6 nM (0.1% DMSO). Treated cells are lysed and cDNA synthesized using the Fast Advanced Cells-to-Ct kit (Thermofisher A35378) according to the manufacturer's instructions. 2 μL of each cDNA are used in qPCR reactions. The qPCR reactions are prepared in 384-well plates in 10 μL volume, using TaqMan™ Fast Advanced Master Mix (ThermoFisher; 4444965) with primers and probes shown in the table below. Reactions are run in a Quant Studio 6 qPCR instrument with default settings.
It is to be understood that the absolute stereochemistry for compounds of Table 3 is not determined.

On to `CN(c1nnc(-c2ccc(-c3cnn(C)c3)cc2O)s1)[C@H]1C[C@@H]2CC[C@@H](N2)[C@H]1F` [Compound E-3A, 2-(5-(((1R,2R,3S,5S)-2-fluoro-8-azabicyclo[3.2.1]octan-3-yl)(methyl)amino)-1,3,4-thiadiazol-2-yl)-5-(1-methyl-1H-pyrazol-4-yl)phenol], for which, in the data set on MDR1, the efflux ratio at 120 min, 5 μM was 3; the Papp A→B (commonly the apparent permeability from the apical to the basolateral side of a cell layer) at 120 min, 5 μM was found to be 10.5 ×10⁻⁶ cm/s; the Papp B→A (in general, how fast a substance crosses the layer from the basolateral side) at 120 min, 5 μM was 35.2 ×10⁻⁶ cm/s. In data set [1], the “MDCK-MDR1: % Recov A-B” value came out at 77% and the “MDCK-MDR1: % Recov B-A” value is 85%. Besides, in the data set on SMN protein, the EC50 (commonly the midpoint of the concentration-response curve) fell in the range of 16 to 50 nM. Also, in the data set on SMN2, the IC50 (commonly the midpoint of a concentration-inhibition curve) lay in the range of 101 to 500 nM and the EC50 lay within 101 to 500 nM.

With `CN(c1nnc(-c2ccc(-c3cnn(C)c3)cc2O)s1)[C@@H]1C[C@H]2CC[C@H](N2)[C@@H]1F` [Compound E-3B, 2-(5-(((1S,2S,3R,5R)-2-fluoro-8-azabicyclo[3.2.1]octan-3-yl)(methyl)amino)-1,3,4-thiadiazol-2-yl)-5-(1-methyl-1H-pyrazol-4-yl)phenol], in the data set on MDR1, the efflux ratio at 120 min, 5 μM worked out at 5; the Papp A→B at 120 min, 5 μM was found to be 11.2 ×10⁻⁶ cm/s; the Papp B→A at 120 min, 5 μM was 51.1 ×10⁻⁶ cm/s. Further, in data set [1], the “MDCK-MDR1: % Recov A-B” value was determined as 80% and the “MDCK-MDR1: % Recov B-A” value was 89%. The EC50 in the data set on SMN protein is 0.01 to 15 nM. In the data set with SMN2, the IC50 was 0.01 to 15 nM and the EC50 is 16 to 50 nM.

(Values after patent US20230069804A1, “METHODS AND COMPOSITIONS FOR MODULATING SPLICING” (SkyHawk Therapeutics, Inc., priority 2019, published 2023).)
